Assays:
Design in all cases: species or system mixed lysate of K562, MV4-11, THP-1, NCI-H1155
[1] = biological target: Tyrosine-protein kinase Yes ; YES1 ; P07947 (Homo sapiens, UniProt P07947); conditions: binder
[2] = biological target: Peripheral plasma membrane protein CASK ; CASK ; O14936 (Homo sapiens, UniProt O14936); conditions: DIA-MS residual binding; binder
[3] = biological target: T1, Ephrin type-B receptor 1 ; EPHB1 ; P54762 (Homo sapiens, UniProt P54762); conditions: DIA-MS residual binding; binder
T1 sequence (P54762 1-984): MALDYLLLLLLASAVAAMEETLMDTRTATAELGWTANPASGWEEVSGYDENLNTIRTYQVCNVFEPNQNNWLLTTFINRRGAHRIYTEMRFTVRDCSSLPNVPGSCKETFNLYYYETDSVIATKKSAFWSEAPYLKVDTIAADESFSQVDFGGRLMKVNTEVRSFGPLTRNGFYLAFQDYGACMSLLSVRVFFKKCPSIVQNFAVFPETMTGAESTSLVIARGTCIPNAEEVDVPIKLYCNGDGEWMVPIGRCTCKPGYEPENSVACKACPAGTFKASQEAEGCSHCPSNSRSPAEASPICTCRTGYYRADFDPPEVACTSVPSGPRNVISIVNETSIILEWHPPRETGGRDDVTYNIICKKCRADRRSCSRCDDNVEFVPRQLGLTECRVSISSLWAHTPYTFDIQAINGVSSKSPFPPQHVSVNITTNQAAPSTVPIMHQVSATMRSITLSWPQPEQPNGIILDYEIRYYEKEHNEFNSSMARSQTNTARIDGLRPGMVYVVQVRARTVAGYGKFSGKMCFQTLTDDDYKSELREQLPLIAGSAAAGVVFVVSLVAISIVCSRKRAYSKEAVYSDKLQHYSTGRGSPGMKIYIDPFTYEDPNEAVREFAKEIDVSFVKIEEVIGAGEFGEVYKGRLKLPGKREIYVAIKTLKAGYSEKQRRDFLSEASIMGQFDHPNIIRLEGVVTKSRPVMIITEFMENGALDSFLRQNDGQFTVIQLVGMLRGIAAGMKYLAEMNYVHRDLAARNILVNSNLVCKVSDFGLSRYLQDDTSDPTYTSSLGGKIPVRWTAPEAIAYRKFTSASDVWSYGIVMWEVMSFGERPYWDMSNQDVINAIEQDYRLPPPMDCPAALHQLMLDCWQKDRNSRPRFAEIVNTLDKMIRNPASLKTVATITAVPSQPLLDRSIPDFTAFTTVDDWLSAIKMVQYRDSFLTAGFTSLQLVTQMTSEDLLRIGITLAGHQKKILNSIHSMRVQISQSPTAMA

[4] = biological target: T2, Tyrosine-protein kinase Tec ; TEC ; P42680 (Homo sapiens, UniProt P42680); conditions: binder
T2 sequence (P42680 1-631): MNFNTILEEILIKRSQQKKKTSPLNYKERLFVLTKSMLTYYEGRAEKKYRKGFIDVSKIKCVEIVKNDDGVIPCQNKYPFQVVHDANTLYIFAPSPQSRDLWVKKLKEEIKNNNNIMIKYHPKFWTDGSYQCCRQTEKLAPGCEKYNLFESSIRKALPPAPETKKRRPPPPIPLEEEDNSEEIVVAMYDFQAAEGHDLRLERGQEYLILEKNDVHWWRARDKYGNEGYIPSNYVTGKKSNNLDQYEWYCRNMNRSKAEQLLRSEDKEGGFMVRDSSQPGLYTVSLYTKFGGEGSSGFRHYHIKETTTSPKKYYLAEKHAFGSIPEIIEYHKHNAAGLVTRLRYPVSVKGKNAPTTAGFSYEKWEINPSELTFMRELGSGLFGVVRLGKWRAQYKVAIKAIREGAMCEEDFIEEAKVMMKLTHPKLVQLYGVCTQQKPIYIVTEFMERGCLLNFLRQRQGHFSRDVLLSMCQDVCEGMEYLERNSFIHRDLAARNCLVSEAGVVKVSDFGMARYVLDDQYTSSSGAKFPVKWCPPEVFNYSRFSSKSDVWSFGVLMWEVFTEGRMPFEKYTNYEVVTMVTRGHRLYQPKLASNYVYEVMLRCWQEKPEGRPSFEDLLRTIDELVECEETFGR

[5] = biological target: Serine/threonine-protein kinase 25 ; STK25 ; O00506 (Homo sapiens, UniProt O00506); conditions: binder
Chain of Serine/threonine-protein kinase 25 ; STK25 ; O00506 (O00506 whole entry, one chain of several): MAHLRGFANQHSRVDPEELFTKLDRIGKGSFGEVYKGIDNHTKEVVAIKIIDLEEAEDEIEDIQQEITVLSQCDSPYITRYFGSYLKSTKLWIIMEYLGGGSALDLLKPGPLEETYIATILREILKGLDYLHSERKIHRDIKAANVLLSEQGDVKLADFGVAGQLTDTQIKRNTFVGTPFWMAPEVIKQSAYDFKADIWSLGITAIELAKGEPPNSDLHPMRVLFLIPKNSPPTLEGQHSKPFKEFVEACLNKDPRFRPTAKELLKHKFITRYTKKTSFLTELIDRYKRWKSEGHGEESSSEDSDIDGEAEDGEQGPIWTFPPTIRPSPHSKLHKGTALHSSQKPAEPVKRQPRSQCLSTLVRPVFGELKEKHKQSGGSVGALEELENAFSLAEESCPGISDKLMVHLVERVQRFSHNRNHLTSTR

[6] = biological target: Mitogen-activated protein kinase 14 ; MAPK14 ; Q16539 (Homo sapiens, UniProt Q16539); conditions: DIA-MS residual binding; binder
Chain of Mitogen-activated protein kinase 14 ; MAPK14 ; Q16539 (Q16539 whole entry, canonical isoform): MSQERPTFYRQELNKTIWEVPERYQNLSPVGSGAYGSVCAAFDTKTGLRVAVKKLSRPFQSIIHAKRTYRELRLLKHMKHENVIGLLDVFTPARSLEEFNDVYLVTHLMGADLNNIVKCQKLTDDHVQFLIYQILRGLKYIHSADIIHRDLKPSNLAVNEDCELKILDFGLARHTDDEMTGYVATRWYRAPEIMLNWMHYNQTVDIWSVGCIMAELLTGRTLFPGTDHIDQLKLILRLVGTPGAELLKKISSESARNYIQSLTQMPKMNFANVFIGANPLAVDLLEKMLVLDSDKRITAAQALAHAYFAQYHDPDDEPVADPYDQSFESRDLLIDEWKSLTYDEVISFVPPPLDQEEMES

[7] = biological target: Isoform 6 of Tyrosine-protein kinase ABL2 ; ABL2-6 ; P42684-6 (Homo sapiens, UniProt P42684); conditions: DIA-MS residual binding; binder
Chain of Isoform 6 of Tyrosine-protein kinase ABL2 ; ABL2-6 ; P42684-6 (P42684 whole entry, canonical isoform): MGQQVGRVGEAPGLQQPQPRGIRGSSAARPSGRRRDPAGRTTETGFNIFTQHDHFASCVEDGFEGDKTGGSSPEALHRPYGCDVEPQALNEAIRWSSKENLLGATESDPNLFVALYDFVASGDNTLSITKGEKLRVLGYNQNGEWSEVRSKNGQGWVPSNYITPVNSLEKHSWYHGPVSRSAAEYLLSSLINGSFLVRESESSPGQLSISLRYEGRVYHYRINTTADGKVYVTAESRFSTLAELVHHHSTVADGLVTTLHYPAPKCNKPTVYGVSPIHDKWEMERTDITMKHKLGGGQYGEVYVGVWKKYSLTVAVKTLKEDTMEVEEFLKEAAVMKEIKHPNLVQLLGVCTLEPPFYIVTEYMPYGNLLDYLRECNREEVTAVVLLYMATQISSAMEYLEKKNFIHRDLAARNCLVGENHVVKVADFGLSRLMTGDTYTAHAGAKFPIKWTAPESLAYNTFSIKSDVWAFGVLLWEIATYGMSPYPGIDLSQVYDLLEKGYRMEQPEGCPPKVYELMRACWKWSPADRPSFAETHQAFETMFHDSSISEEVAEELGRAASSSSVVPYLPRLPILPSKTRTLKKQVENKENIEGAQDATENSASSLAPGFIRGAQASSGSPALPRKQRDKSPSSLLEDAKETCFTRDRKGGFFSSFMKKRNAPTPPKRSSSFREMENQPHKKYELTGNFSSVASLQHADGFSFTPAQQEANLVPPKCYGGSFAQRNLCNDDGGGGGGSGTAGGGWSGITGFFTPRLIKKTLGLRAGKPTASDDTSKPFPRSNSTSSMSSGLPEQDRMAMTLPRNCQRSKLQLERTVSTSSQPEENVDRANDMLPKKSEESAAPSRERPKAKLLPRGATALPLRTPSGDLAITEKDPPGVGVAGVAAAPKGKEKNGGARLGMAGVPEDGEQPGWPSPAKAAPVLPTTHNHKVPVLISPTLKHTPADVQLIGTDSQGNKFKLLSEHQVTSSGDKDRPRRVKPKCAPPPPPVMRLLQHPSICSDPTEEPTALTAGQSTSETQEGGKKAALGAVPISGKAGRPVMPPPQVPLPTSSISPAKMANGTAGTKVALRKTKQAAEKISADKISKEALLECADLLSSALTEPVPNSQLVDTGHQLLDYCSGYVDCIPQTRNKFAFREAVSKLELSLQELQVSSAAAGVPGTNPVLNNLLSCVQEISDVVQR

Chain of Tyrosine-protein kinase Yes ; YES1 ; P07947 (P07947 whole entry): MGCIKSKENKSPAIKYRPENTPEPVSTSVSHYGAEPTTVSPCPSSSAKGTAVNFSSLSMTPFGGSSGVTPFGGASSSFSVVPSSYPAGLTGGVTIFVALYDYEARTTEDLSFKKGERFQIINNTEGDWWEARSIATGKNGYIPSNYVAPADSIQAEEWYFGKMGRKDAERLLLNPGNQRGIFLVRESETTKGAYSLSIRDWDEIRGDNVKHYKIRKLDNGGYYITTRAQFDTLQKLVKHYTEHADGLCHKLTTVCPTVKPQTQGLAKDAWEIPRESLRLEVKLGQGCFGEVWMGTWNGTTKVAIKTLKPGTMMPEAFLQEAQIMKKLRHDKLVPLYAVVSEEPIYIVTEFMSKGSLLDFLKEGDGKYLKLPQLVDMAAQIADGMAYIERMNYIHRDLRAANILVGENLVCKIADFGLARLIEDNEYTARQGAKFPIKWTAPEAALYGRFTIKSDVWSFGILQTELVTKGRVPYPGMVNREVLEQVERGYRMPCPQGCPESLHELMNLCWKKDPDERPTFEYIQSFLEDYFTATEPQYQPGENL
Chain of Peripheral plasma membrane protein CASK ; CASK ; O14936 (O14936 whole entry): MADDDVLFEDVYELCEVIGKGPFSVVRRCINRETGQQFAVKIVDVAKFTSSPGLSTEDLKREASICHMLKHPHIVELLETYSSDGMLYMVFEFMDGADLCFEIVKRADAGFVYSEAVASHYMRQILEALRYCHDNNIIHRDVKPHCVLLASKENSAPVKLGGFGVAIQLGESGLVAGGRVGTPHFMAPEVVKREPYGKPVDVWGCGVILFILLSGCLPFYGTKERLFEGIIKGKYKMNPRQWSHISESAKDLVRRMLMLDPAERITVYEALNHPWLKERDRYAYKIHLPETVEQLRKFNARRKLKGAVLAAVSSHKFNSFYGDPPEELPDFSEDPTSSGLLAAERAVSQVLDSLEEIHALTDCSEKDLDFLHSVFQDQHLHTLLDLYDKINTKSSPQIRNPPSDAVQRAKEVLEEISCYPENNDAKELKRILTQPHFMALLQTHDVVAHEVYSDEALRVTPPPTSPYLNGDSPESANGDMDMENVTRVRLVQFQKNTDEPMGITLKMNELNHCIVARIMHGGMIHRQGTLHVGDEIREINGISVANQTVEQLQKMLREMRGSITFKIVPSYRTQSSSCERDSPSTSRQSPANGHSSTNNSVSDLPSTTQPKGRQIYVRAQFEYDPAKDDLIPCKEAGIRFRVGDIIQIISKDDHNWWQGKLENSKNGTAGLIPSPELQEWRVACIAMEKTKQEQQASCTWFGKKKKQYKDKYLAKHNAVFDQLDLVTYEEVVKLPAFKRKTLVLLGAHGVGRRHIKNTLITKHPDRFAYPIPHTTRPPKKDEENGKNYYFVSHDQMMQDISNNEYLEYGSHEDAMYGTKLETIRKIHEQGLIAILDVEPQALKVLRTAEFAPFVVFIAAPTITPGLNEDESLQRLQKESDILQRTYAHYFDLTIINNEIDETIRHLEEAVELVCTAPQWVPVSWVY

DIA-MS / % Intensity (30 µM/DMSO) [1]: 2.565%
DIA-MS / % Intensity (30 µM/DMSO) [2]: 21.6%
DIA-MS / % Intensity (30 µM/DMSO) [3]: 6.728%
DIA-MS / % Intensity (30 µM/DMSO) [4]: 7.109%
DIA-MS / % Intensity (30 µM/DMSO) [5]: 52%
DIA-MS / % Intensity (30 µM/DMSO) [6]: 32.28%
DIA-MS / % Intensity (30 µM/DMSO) [7]: 0.2688%
Structure (SMILES): Cc1nc(Nc2ncc(C(=O)Nc3c(C)cccc3Cl)s2)cc(N2CCN(CCO)CC2)n1 [dasatinib]
